Values after ≈ are worked out from the molar mass of the structure shown.
How the values were obtained:
Assay type in all cases: cell-based
[1] = tested on: S. aureus, E. faecalis, E. faecium, S. pyogenes, S. epidermidis and S. pneumoniae; assay: Bactericidal activity
Method: (§1) Compounds of the present invention were tested for antibacterial activity against a variety of pathogenic organisms including S. aureus, S. pneumoniae, S. pyogenes, E. faecalis, H. influenza and M. catarrhalis using a standard broth microdilution method to determine their minimum inhibitory concentrations (MICs). All compounds were tested using standard methods in accordance with CLSI guidelines (Clinical and Laboratory Standards Institute). Compounds described in Examples 1, 3-6, 8, 10-17, 19-21, 24-31, 33, 36, 38, 40, 54, 56-57, 59-71, 74-105, 107-108, 110-112, 114, 117-120, 122-142, 144-159, 162-179, 181-182, 184-225, 227-242, 244-319, 321-355, and 357-475 had MIC's of <0.12-4.0 μg/mL against some strains of the major Gram-positive organisms S. aureus, S. pneumoniae, S. pyogenes, and E. faecalis. […] Compounds described in Examples 11, 54, 60, and 208 shown to be bactericidal in S. aureus, E. faecalis, E. faecium, S. pyogenes, S. epidermidis and S. pneumoniae.

[2] = tested on: MRSA, VISA, linezolid-resistant S. aureus, resistant S. epidermidis, S. pyogenes, S. pneumoniae, E. faecalis (VRE) and E. faecium; assay: MIC against drug-resistant Gram-positive strains; conditions: MRSA, VISA, linezolid-resistant S. aureus, resistant S. epidermidis, S. pyogenes, S. pneumoniae, E. faecalis (VRE), E. faecium
Method: as §1
(§2) Compounds of the present invention were not compromised by existing resistance to all drug classes tested, including β-lactams, glycopeptides, oxazolidinones, macrolides, and fluoroquinolones. In particular, compounds described in Examples 11, 54, 60, and 208 were active against methicillin-(oxacillin-) resistant S. aureus (MRSA), vancomycin-intermediate S. aureus (VISA), linezolid-resistant S. aureus, methicillin-(oxacillin-) resistant and mupirocin resistant S. epidermidis, macrolide-resistant S. pyogenes, macrolide-, penicillin-, and levofloxacin-resistant S. pneumoniae, vancomycin-, macrolide-, and ciprofloxacin-resistant E. faecalis (VRE) and vancomycin-, macrolide-, and ciprofloxacin-resistant E. faecium.

[3] = MIC against drug-resistant Gram-positive strains; conditions: read-out: MIC in clinically relevant resistant strains
Method: as §1, §2

[4] = MIC90 against resistant Gram-positive bacteria
Method: as §1

**Q.** Which bactericidal [1] does the source give for `Cc1noc(C)c1C(=O)N(C)Cc1csc(NC(=O)NCc2ccc(Cl)c(Cl)c2)n1` [Example 11, N-((2-(3-(3,4-dichlorobenzyl)ureido)thiazol-4-yl)methyl)-N,3,5-trimethylisoxazole-4-carboxamide] here?
**A.** The bactericidal was “bactericidal”.

**Q.** And the “activity against drug-resistant strains” value [2]?
**A.** Its value is “active”.

**Q.** And the MIC [3]?
**A.** Its MIC is 0.25 to 4 µg/mL (≈ 0.534 to 8.54 µM).

**Q.** Which results are given for `Cc1noc(C)c1C(=O)N(C)Cc1csc(NC(=O)NCc2cccc(F)c2)n1` [Example 54, N-((2-(3-(3-fluorobenzyl)ureido)thiazol-4-yl)methyl)-N,3,5-trimethylisoxazole-4-carboxamide]?
**A.** MIC90 [4]: 1 to 4 µg/mL (≈ 2.4 to 9.58 µM); bactericidal [1]: bactericidal; activity against drug-resistant strains [2]: active; MIC [3]: 0.25 to 4 µg/mL (≈ 0.599 to 9.58 µM)

**Q.** For `CCc1noc(C)c1C(=O)N(C)Cc1csc(NC(=O)NCc2cccc(F)c2)n1` [Example 60, 3-ethyl-N-((2-(3-(3-fluorobenzyl)ureido)thiazol-4-yl)methyl)-N,5-dimethylisoxazole-4-carboxamide], which MIC90 [4] is on record?
**A.** The MIC90 was 1 to 4 µg/mL (≈ 2.32 to 9.27 µM).

**Q.** And the bactericidal [1]?
**A.** Its bactericidal is “bactericidal”.

**Q.** What about the “activity against drug-resistant strains” value [2] of the same molecule?
**A.** The value was “active”.

**Q.** What about the MIC [3] of the same molecule?
**A.** The MIC was 0.25 to 4 µg/mL (≈ 0.579 to 9.27 µM).

**Q.** Which MIC90 [4] does the source give for `Cc1ncnc(C)c1C(=O)N(C)Cc1csc(NC(=O)NCc2cccc(F)c2)n1` [Example 96, N-((2-(3-(3-fluorobenzyl)ureido)thiazol-4-yl)methyl)-N,4,6-trimethylpyrimidine-5-carboxamide] here?
**A.** Its MIC90 is 1 to 4 µg/mL (≈ 2.33 to 9.34 µM).

**Q.** For `Cc1noc(C)c1C(=O)N(C)Cc1csc(NC(=O)NCc2ccc(Cl)s2)n1` [Example 107, N-((2-(3-((5-chlorothiophen-2-yl)methyl)ureido)thiazol-4-yl)methyl)-N,3,5-trimethylisoxazole-4-carboxamide], which MIC90 [4] is on record?
**A.** The MIC90 was 1 to 4 µg/mL (≈ 2.27 to 9.09 µM).

**Q.** Which MIC90 [4] does the source give for `CN(Cc1csc(NC(=O)NCc2cccc(F)c2)n1)C(=O)c1cc(O)nnc1Cl` [Example 208, 3-Chloro-6-hydroxy-pyridazine-4-carboxylic acid {2-[3-(3-fluoro-benzyl)-ureido]-thiazol-4-ylmethyl}-methyl-amide] here?
**A.** The MIC90 was 1 to 4 µg/mL (≈ 2.22 to 8.87 µM).

**Q.** What about the bactericidal [1] of the same molecule?
**A.** Its bactericidal is “bactericidal”.

**Q.** And the “activity against drug-resistant strains” value [2]?
**A.** The value was “active”.

**Q.** What about the MIC [3] of the same molecule?
**A.** The MIC was 0.25 to 4 µg/mL (≈ 0.554 to 8.87 µM).

**Q.** Which MIC90 [4] does the source give for `Cc1noc(C)c1C(=O)N(C)C(C#N)c1csc(NC(=O)NCc2cccc(F)c2)n1` (stereo not drawn) [Example 214, 3,5-Dimethyl-isoxazole-4-carboxylic acid (cyano-{2-[3-(3-fluoro-benzyl)-ureido]-thiazol-4-yl}-methyl)-methyl-amide] here?
**A.** Its MIC90 is 1 to 4 µg/mL (≈ 2.26 to 9.04 µM).

From patent publication US8148380B2, “Antibacterial amide and sulfonamide substituted heterocyclic urea compounds” (priority 2007, dated 2012)
